Assay [1] concerns MCF-7 (breast carcinoma). Nature of the assay: 72-hour IC50 determination for adherent cells using sulforhodamine B (SRB). The format is cell-based, human. Conditions: error is standard deviation of the mean, n ≧ 3, read-out: MCF-7, 72-hour IC50 (Table E1-2). The method, then: (§1) Certain provided compounds were tested in culture against a panel of three supplementary human cancer cell lines representing three additional tumor histologies (H460, lung carcinoma; 786-O, renal carcinoma; MCF-7, breast carcinoma). As shown in Table E1-2, the ETPs retain their potency across the cell lines. In some embodiments, a provided compound is active in all cell lines. In some embodiments, a provide compound can be used to selectively target certain cells and/or cancers. […] Without the intention to be limited, Applicant notes that certain cell lines could be more sensitive to provided compounds; for example, U-937 and HeLa are slightly more sensitive to the ETPs than the other three cell lines.
(§2) Cells were grown in media supplemented with fetal bovine serum (FBS) and antibiotics ([…]). Specifically, experiments were performed using the following cell lines and media compositions: U-937, HeLa, H460, and 786-O (RPMI-1640+10% FBS), and MCF7 (EMEM+10% FBS). Cells were incubated at 37° C. in a 5% CO2, 95% humidity atmosphere.
(§3) Adherent cells (HeLa, H460, 786-O, and MCF7) were added into 96-well plates (5,000 cells/well for HeLa cell line; 2,000 cells/well for H460, 786-O, and MCF7 cell lines) in 100 μL media and were allowed to adhere for 2-3 hours. Compounds were solubilized in DMSO as 100× stocks, added directly to the cells (100 μL final volume), and tested over a range of concentrations in triplicate (1% DMSO final) on a half-log scale. Concentrations tested ranged from […] to 10 μM, depending on the potency of the compound. DMSO and cell-free wells served as the live and dead control, respectively. After 72 hours of continuous exposure, the plates were evaluated using the SRB colorimetric assay as described previously (Vichai, V.; Kirtikara, K. Nature Prot. 2006, 1, 1112). Briefly, media was removed from the plate, and cells were fixed by the addition of 100 μL cold 10% trichloroacetic acid in water. After incubating at 4° C. for an hour, the plates were washed in water and allowed to dry. Sulforhodamine B was added as a 0.057% solution in 1% acetic acid (100 μL), and the plates were incubated at room temperature for 30 minutes, washed in 1% acetic acid, and allowed to dry. The dye was solubilized by adding 10 mM Tris base solution (pH 10.5, 200 μL) and incubating at room temperature for 30 minutes. Plates were read at λ=510 nm. IC50 values were determined from three or more independent experiments using TableCurve (San Jose, Calif.).

Assay [2] relates to 786-O (renal carcinoma). Described as above. It is filed as cell-based, human. Conditions: error is standard deviation of the mean, n ≧ 3, read-out: 786-O, 72-hour IC50 (Table E1-2). On the procedure: as §1, §2, §3
Assay [3] has as its system H460 (lung carcinoma). The assay is described as above. The format is cell-based, human. Conditions: error is standard deviation of the mean, n ≧ 3, read-out: H460, 72-hour IC50 (Table E1-2). The method, then: as §1, §2, §3
The test system of assay [4] is U-937 (hystiocytic lymphoma). Description: 72-hour IC50 determination for non-adherent cells using MTS. The format is cell-based, human. On the procedure: (§4) Certain synthesized compounds were screened for their ability to induce death in two human cancer cell lines: U-937 (leukemic monocyte lymphoma) and HeLa (cervical cancer).
as §2
(§5) In a 96-well plate, compounds were pre-added as DMSO stocks in triplicate to achieve a final concentration of 1%. DMSO and cell-free wells served as the live and dead control, respectively. U-937 (5,000 cells/well) cells were distributed in 100 μL media to the compound-containing plate. After 72 hours, cell viability was assessed by adding 20 μL of a PMS/MTS solution (Cory, A. H.; Owen, T. C.; Barltrop, J. A.; Cory, J. G. Cancer Commun. 1991, 3, 207) to each well, allowing the dye to develop at 37° C. until the live control had processed MTS, and reading the absorbance at λ=490 nm. IC50 values were determined from three or more independent experiments using TableCurve (San Jose, Calif.).

In assay [5] the test system is HeLa (cervical carcinoma). Nature of the assay: 72-hour IC50 determination for adherent cells using sulforhodamine B (SRB). It is filed as cell-based, human. The method, then:
as §4, §2, §3

Assay [6] has as its system human cancer cell lines. Description: Anticancer activity in human cancer cell lines, not tied to one cell line. It is filed as cell-based. Conditions: for anticancer activity, in words: human cancer cell lines, 72-hour exposure; for IC50: Homo sapiens, cell line not named in the sentence (U-937 and HeLa screened), read-out: IC50 (did not display any anticancer activity). On the procedure: as §4, §1, §3, §5

Setting [7] is: 72-hour exposure, MTS, error is standard deviation of the mean, n ≧ 3, read-out: U-937, 72-hour IC50 (Table E1-1).
Setting [8] is: 72-hour exposure, MTS, error is standard deviation of the mean, n ≧ 3, read-out: U-937, 72-hour IC50 (Table E1-2).
Where [9] appears, read: 72-hour exposure, SRB, error is standard deviation of the mean, n ≧ 3, read-out: HeLa, 72-hour IC50 (Table E1-1).
[10] abbreviates: 72-hour exposure, SRB, error is standard deviation of the mean, n ≧ 3, read-out: HeLa, 72-hour IC50 (Table E1-2).
The mark [11] stands for this setting: Homo sapiens, U-937, 72 h, read-out: U-937, 72-hour IC50 (Table E1-1).
Where [12] appears, read: Homo sapiens, HeLa, 72 h, read-out: HeLa, 72-hour IC50 (Table E1-1).
Setting [13] is: Homo sapiens, U-937, 72-hour exposure, MTS, error is standard deviation of the mean, n ≧ 3, read-out: U-937, 72-hour IC50 (Table E1-1).
[14] abbreviates: Homo sapiens, HeLa, 72-hour exposure, SRB, error is standard deviation of the mean, n ≧ 3, read-out: HeLa, 72-hour IC50 (Table E1-1).

Read-outs that look alike come from different tables or passages of the source.

In general, IC50 refers to the concentration that gives 50% inhibition. As to `CC(=O)OC[C@]12SSS[C@@]3(C[C@]4([C@]56C[C@@]78SSS[C@@](COC(C)=O)(C(=O)N7[C@H]5Nc5ccccc56)N(C)C8=O)c5ccccc5N[C@@H]4N3C1=O)C(=O)N2C` [Compound 16], the IC50 stood at 263 ± 98 nM in assay [1] (72-hour exposure); 204 ± 40 nM in assay [2] (72-hour exposure); 187 ± 79 nM in assay [3] (72-hour exposure); 9.7 ± 2.1 nM in assay [4] (setting [7]); 9.7 ± 2.1 nM in assay [4] (setting [8]); 70 ± 20 nM in assay [5] (setting [9]). For the same molecule, the IC50 in assay [5] (setting [10]) is 70 ± 20 nM.

On to `CN1C(=O)[C@@]23C[C@]4(c5c[nH]c6ccccc56)c5ccccc5N[C@@H]4N2C(=O)[C@@H]1SS3` [Compound 10, (+)-12-deoxybionectin A], for which the IC50 in assay [1] (Homo sapiens, MCF7, 72-hour exposure) was determined as 156 ± 18 nM; in assay [2] (Homo sapiens, 786-0, 72-hour exposure) it was 181 ± 26 nM; in assay [3] (Homo sapiens, NCI-H460, 72-hour exposure), 215 ± 100 nM; in assay [4] (setting [11]), 17.4 ± 1.1 nM; in assay [4] (Homo sapiens, U-937, 72 h, read-out: U-937, 72-hour IC50 (Table E1-2)) it was 17.4 ± 1.1 nM; in assay [5] (setting [12]), 117 ± 26 nM. Also, the IC50 in assay [5] (Homo sapiens, HeLa, 72 h, read-out: HeLa, 72-hour IC50 (Table E1-2)) amounted to 117 ± 26 nM.

Take `CN1C(=O)[C@]23C[C@]4(c5c[nH]c6ccccc56)c5ccccc5N(S(=O)(=O)c5ccccc5)[C@@H]4N2C(=O)[C@@]1(C)SS3` [Compound 62, C3-(Indol-3′-yl) epidithiodiketopiperazines]: the IC50 in assay [4] (setting [7]) and in assay [5] (setting [9]) was over 1000 nM in each case. Further, the “anticancer activity, in words” value in assay [6] was “inactive”.

Turning to `CC(=O)OC[C@]12SS[C@@]3(C[C@]4([C@]56C[C@@]78SS[C@@](COC(C)=O)(C(=O)N7[C@H]5Nc5ccccc56)N(C)C8=O)c5ccccc5N[C@@H]4N3C1=O)C(=O)N2C` [Compound 15], the IC50 in assay [1] (72-hour exposure) amounted to 77 ± 36 nM; in assay [2] (72-hour exposure), 95 ± 23 nM; in assay [3] (72-hour exposure), 140 ± 82 nM; in assay [4] (setting [7]) it was 4.7 ± 1.3 nM; in assay [4] (setting [8]), 4.7 ± 1.3 nM; in assay [5] (setting [9]), 14.1 ± 7.4 nM. For the same molecule, the IC50 in assay [5] (setting [10]) is 14.1 ± 7.4 nM.

Take `CCC[C@]12CC34SC(=S)SC(C)(C(=O)N3C1N(S(=O)(=O)c1ccccc1)c1ccccc12)N(C)C4=O` (some centres unmarked) [Compound 67, C3-Propyl dithiepanethiones]: the IC50 in assay [4] (setting [13]) and in assay [5] (setting [14]) was over 1000 nM each time. Besides, the “anticancer activity, in words” value in assay [6] is “inactive”.

For the molecule `CN1C(=O)[C@@]23C[C@]4(c5c[nH]c6ccccc56)c5ccccc5N(S(=O)(=O)c5ccccc5)[C@@H]4N2C(=O)[C@]1(C)SS3` [Compound 60, C3-(Indol-3′-yl) epidithiodiketopiperazines], the IC50 in assay [1] (72-hour exposure) is 327 ± 36 nM; in assay [2] (72-hour exposure), 907 ± 48 nM; in assay [3] (72-hour exposure), 165 ± 65 nM; in assay [4] (setting [7]), 56 ± 23 nM; in assay [4] (setting [8]), 56 ± 23 nM; in assay [5] (setting [9]), 67 ± 11 nM. The IC50 in assay [5] (setting [10]) was determined as 67 ± 11 nM.

Regarding `CSS[C@H]1C(=O)N2[C@H]3N(S(=O)(=O)c4ccccc4)c4ccccc4[C@@]3(c3c[nH]c4ccccc34)C[C@]2(SSC)C(=O)N1C` [Compound 46, C3-(Indol-3′-yl)bis(methyldlsulfane)], the IC50 in assay [4] (setting [13]) is 20.4 ± 9 nM; in assay [5] (setting [14]) it was 36.6 ± 3.9 nM. The “anticancer activity, in words” value in assay [6] is on record as “competent anticancer agents”.

With `CC(=O)OC[C@]12SSS[C@@]3(C[C@]4([C@]56C[C@@]78SSS[C@@](COC(C)=O)(C(=O)N7[C@H]5N(C(=O)C(F)(F)F)c5ccccc56)N(C)C8=O)c5ccccc5N(C(=O)C(F)(F)F)[C@@H]4N3C1=O)C(=O)N2C` [Compound 17], the IC50 was over 333 nM in assay [1] (72-hour exposure); 189 ± 26 nM in assay [2] (72-hour exposure); 179 ± 88 nM in assay [3] (72-hour exposure); 8.9 ± 2.3 nM in assay [4] (setting [7]); 8.9 ± 2.3 nM in assay [4] (setting [8]); 28.1 ± 2.2 nM in assay [5] (setting [9]). The 50% inhibitory concentration (IC50) in assay [5] (setting [10]) is 28.1 ± 2.2 nM.

Take `COCS[C@H]1C(=O)N2[C@H]3Nc4ccccc4[C@@]3(c3c[nH]c4ccccc34)C[C@]2(SCOC)C(=O)N1C` [Compound 41, C3-(Indol-3′-yl)bis(S-MOM)ether]: the IC50 in assay [4] (setting [13]), in assay [5] (setting [14]) and in assay [6] was over 10000 nM throughout.

Consider `CN1C(=O)[C@@]2(SCc3ccccc3)C[C@]3(c4cn(C(=O)OC(C)(C)C)c5ccccc45)c4ccccc4N(S(=O)(=O)c4ccccc4)[C@@H]3N2C(=O)[C@@H]1SCc1ccccc1` [Compound 43, C3-(N-Boc-indol-3′-yl)bis(benzylthioether)], for which the IC50 in assay [4] (setting [13]), in assay [5] (setting [14]) and in assay [6] was over 10000 nM each time.

Regarding `CCCC12CC34SSC(C)(C(=O)N3C1N(S(=O)(=O)c1ccccc1)c1ccccc12)N(C)C4=O` (stereo not drawn) [Compound 61, β-C3-Propyl epidithiodiketopiperazine], the IC50 in assay [4] (setting [11]) and in assay [5] (setting [12]) was over 1000 nM in each case. For the same molecule, the “anticancer activity, in words” value in assay [6] is reported as “substantially lower potencies”.

Regarding `CN1C(=O)C23CC4(c5c[nH]c6ccccc56)c5ccccc5N(S(=O)(=O)c5ccccc5)C4N2C(=O)C1(C)SC(=S)S3` (centres unmarked) [Compound 66, C3-(Indo-3′-v)dithiepanethiones], the half-inhibitory concentration (IC50) in assay [4] (setting [7]) and in assay [5] (setting [9]) was over 1000 nM in each case. The “anticancer activity, in words” value in assay [6] was “inactive”.

As to `CCCC12CC34SSC(C)(C(=O)N3C1N(S(=O)(=O)c1ccccc1)c1ccccc12)N(C)C4=O` (stereo not drawn) [Compound 63, α-C3-Propyl epidithiodiketopiperazine], the IC50 in assay [4] (read-out: U-937, 72-hour IC50 (Table E1-1), 72-hour exposure, MTS, error is standard deviation of the mean, n ≧ 3) is over 1000 nM; in assay [5] (read-out: HeLa, 72-hour IC50 (Table E1-1), 72-hour exposure, SRB, error is standard deviation of the mean, n ≧ 3) it was over 1000 nM. Moreover, the “anticancer activity, in words” value in assay [6] is “inactive”.

Turning to `CN1C(=O)C23CC4(c5c[nH]c6ccccc56)c5ccccc5N(S(=O)(=O)c5ccccc5)[C@@H]4N2C(=O)[C@H]1SCS3` (some centres unmarked) [Compound 38, C3-(Indol-3′-yl)dithioacetal], the IC50 in assay [4] (setting [13]) came out at 82 ± 28 nM; in assay [5] (setting [14]), 465 ± 37 nM. Besides, in assay [6], the “anticancer activity, in words” value was “active”.

Source of the values: patent publication US9353150B2, “Substituted pyrazino[1′,2′:1 ,5]pyrrolo[2,3-b]-indole-1,4-diones for cancer treatment” (Massachusetts Institute of Technology, priority 2012, dated 2016).
